We go through nine compounds from patent US20110129504A1, “COMPOSITION FOR CONTROLLING LIPASE CATALYZED REACTIONS” (NESTEC S.A., priority 2007, published 2011).

For series [1], the target named is T1, Rhizomucor miehei lipase (Rhizomucor miehei, UniProt P19515). Briefly: Biphasic decane/buffer system: lipolytic hydrolysis of p-nitrophenylpalmitate. It counts as biochemical. Conditions: monoglyceride 1.3 E-3 M in decane, p-nitrophenylpalmitate 2E-4M, phosphate buffer pH 5.5, 3,3 E-6 M lipase; 410 nm; vs reference without surfactant. Here is the method: (§1) A biphasic system was prepared in glass test tubes with the following composition: • Upper oil phase is composed of 7 ml decane in the absence (control) or presence of (1,3 E-3M) monoglyceride and 20 ul tricaprylin or p-nitrophenypalmitate (2E-4M) • Aqueous phase is composed of 2 ml phosphate buffer, pH 5.5 containing 3,3 E-6 M Rhizomucor miehei lipase. The caprylic acid generation in the presence and absence of monoglycerides (surfactant) is monitored by GC-FID. 100 ul of the upper oil phase are taken and added to 900 ul Chloroform before direct injection into the GC. The nitrophenol generation is followed by spectroscopic analysis at 410 nm of the aqueous phase. FIGS. 7 and 8 show the amount of caprylic acid formed after the lipolytic hydrolysis of the p-nitropheylpalmitate and tricaprylin in the presence of Sn1 (hydrolysable surfactants) or Sn2 (non-hydrolysable) monoglycerides. […] This is an indication that with the used monoglyceride concentration (the concentration was constant at 1.3 E-3 M) not enough surfactant is adsorbing to the water-oil interface, since the Sn2M20:4 is too lipohilic and partitions more into the bulk oil than to the interface.
T1 sequence (P19515 95-363): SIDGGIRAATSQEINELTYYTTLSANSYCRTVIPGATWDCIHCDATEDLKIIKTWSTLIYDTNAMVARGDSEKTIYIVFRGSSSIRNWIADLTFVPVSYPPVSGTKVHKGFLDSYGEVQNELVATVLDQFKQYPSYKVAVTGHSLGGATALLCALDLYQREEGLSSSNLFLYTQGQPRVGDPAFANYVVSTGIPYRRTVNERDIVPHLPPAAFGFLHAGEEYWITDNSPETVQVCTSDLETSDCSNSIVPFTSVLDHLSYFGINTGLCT

For series [2], the target named is T1, Rhizomucor miehei lipase. Briefly: Biphasic decane/buffer system: lipolytic hydrolysis of tricaprylin. The series is classed as biochemical. The conditions noted are these: monoglyceride 1,3 E-3M in decane, 20 ul tricaprylin, phosphate buffer pH 5.5, 3,3 E-6 M lipase; vs no surfactant; GC-FID. Here is the method:
as §1

Another series deals with lipase. Briefly: TIM gastro-intestinal model (TNO) digestion of Tricaprylin emulsion. It counts as biochemical. Here is the method:
8 ml Tricaprylin containing 2.0 g Sn2-Monopalmitin (non-cleavable surfactant) was mixed with 200 ml phosphate buffer pH 5.5 and 20 mg/ml starch (emulsifier) using an Ultra Turrax for 2 minutes, and subsequent sonification for 10 minutes. The reference emulsion system contains the same amount of tricaprylin and starch, however, no Sn2-monopalmitin. Model digestion runs of the 2 samples were performed using a gastro-intestinal model system provided by TNO. Physiological conditions (e.g. temperature, enzyme type and load, bile salt concentration, pH) were predefined via the TIM programming system. The hydrolysis of Tricaprylin was followed by monitoring the caprylic acid release after passing the different gastro-intestinal compartments. […] The extraction of the generated fatty acids after passing the different compartments was performed by taking 100 ul of the reaction mixture, adding 900 ul chloroform together with 100 ul Chloridric acid 1M. The samples were vortexed and centrifuged at 5000 rpm for 10 min. 500 ul of the supernatant was taken and directly injected into a GC-FID. 3 samples were analysed for each reaction time at each gastro-intestinal compartment.
Additional experiments were performed where sn-2 monopalmitin was replaced Lysophosphotidilcholine (LysoPC). The effect of LysoPC on fat gastric digestion were studied.

Series [3] is described as follows: Pendant drop interfacial tension at buffer/decane interface. The series is classed as physicochemical. The text has this: The interfacial tension of pure Tricaprylin (free of any residues of polar lipids), should remain above 30 mN/m. Therefore, a more interfacial active molecule (like monocaprylin), has the capacity to exclude the triglyceride from the interface.

On to `CCCCCCCC(=O)OCC(O)CO` (centres unmarked) [Sn1 M8], for which, at Rhizomucor miehei lipase [1], the “kinetics of nitrophenol formation from p-nitrophenylpalmitate” value (from here on “kinetics … from p-nitrophenylpalmitate”) is listed as “quite similar to the observations made in the reference system”.
Same read-out and setting: then `CCCCCCCCCCCC(=O)OCC(O)CO` (centres unmarked) [Sn1 M12], with “quite similar to the observations made in the reference system”.
The same measure, in the same setting: then `CCCCCCCCCCCCCCCC(=O)OCC(O)CO` (centres unmarked) [Sn1-M16], with “quite similar to the observations made in the reference system”.
Take `CCCCCCCC(=O)OC(CO)CO` [Sn2-M8]: the “kinetics of lipolytic caprylic acid formation from tricaprylin” value (“kinetics … from tricaprylin” for short) at Rhizomucor miehei lipase [2] is given as “reduced”. On Rhizomucor miehei lipase [1], the “kinetics … from p-nitrophenylpalmitate” value is given as “significant reduction”.
On to `CCCCCCCCCCCC(=O)OC(CO)CO` [Sn2-M12], for which the “kinetics … from tricaprylin” value at Rhizomucor miehei lipase [2] is given as “reduced”. The “kinetics … from p-nitrophenylpalmitate” value at Rhizomucor miehei lipase [1] is “significant reduction”.
For `CCCCCCCCCCCCCCCC(=O)OC(CO)CO` [Sn2-M16, Sn-2 Monopalmitin], the “Caprylic acid (C8) detected after passing through the ileum and jejunum” value in the series on lipase (8 ml Tricaprylin containing 2.0 g surfactant, phosphate buffer pH 5.5, starch emulsifier, vs reference emulsion without surfactant, GC-FID, FIG. 2) is given as “almost no caprylic acid is detected”. The “caprylic acid content in the lumen of the stomach, duodenum, jejunum and in the efflux” value in the series on lipase (compared with the ileum/jejunum result (almost no caprylic acid), FIGS. 3, 4 and 5) is “A similar result is obtained”. In addition, the “kinetics … from tricaprylin” value at Rhizomucor miehei lipase [2] is on record as “reduced”. For the same compound, at Rhizomucor miehei lipase [1], the “kinetics … from p-nitrophenylpalmitate” value is listed as “significant reduction”.
With `CCCCCCCCCCCCCCCCCCCC(=O)OC(CO)CO` [monoarachidin, Sn-2 monoarachidin], the “interfacial tension between the buffer and the decane solution” value in series [3] (as a function of titrated (added) surfactant, FIG. 8) is “induces a decrease of the measured interfacial tension”.
For `CCCCCCCC(=O)OCC(O)CO` (centres unmarked) [monocaprylin], the “interfacial activity compared with caprylic acid (C8) and dicaprylin (DC8)” value in series [3] (buffer/decane interface, FIG. 9) is given as “considerably more interfacially active”.
As to Lysophosphotidilcholine [LysoPC], the “gastric lipolysis of triglycerides” value in the series with lipase (sn-2 monopalmitin replaced by LysoPC, lumen of stomach, FIG. 3) is “considerable effect in decreasing gastric lipolysis”.
